Consider four molecules from patent US4310660A, “Lincomycin compounds” (The Upjohn Company, priority 1980, dated 1982).

In brackets after ≈: the same amount, converted by molar mass. Where two headings read alike, the source gives them in different places.

The test system of test [1] is Salmonella schottmuelleri. In words: MIC vs. aerobic bacteria, microplate broth-dilution (BHI). It counts as cell-based. To be noted: Salmonella. As for the experimental part: (§1) The Minimal Inhibitory Concentration (MIC's) of both compounds Vs. aerobic bacteria is determined using a standard microplate broth-dilution method. Brain Heart Infusion (BHI-Difco) broth medium is used, and the plates are incubated at 37° C. for 20 hrs.

Test [2] relates to Klebsiella pneumoniae. Described as above. In kind it is cell-based. To be noted: Klebsiella pneumoniae. As for the experimental part:
as §1

The subject of test [3] is Streptococcus faecalis. Described as above. To be noted: Enterococcus faecalis. In kind it is cell-based. As for the experimental part:
as §1

The subject of test [4] is Escherichia coli. The description is as above. In kind it is cell-based. On the procedure:
as §1

The subject of test [5] is Pseudomonas aeruginosa. Described as above. In kind it is cell-based. As for the experimental part:
as §1

Test [6] deals with Diplococcus pneumoniae. The test is described as above. It counts as cell-based. To be noted: Streptococcus pneumoniae. As for the experimental part:
as §1

Test [7] relates to Proteus vulgaris. The test is described as above. In kind it is cell-based. To be noted: Proteus vulgaris, UC93, 20 h, P. vulgaris UC 93; read-out: MIC. As for the experimental part: as §1
In test [8] the test system is Staphylococcus aureus. The test is described as above. To be noted: Staphylococcus aureus. It counts as cell-based.
Test [9] relates to S. hemolyticus. In words: MIC, test procedure as given supra. In kind it is cell-based. To be noted: UC152, 20 h, S. hemolyticus UC 152; read-out: MIC. As for the experimental part: as §1
(§2) The Minimal Inhibitory Concentration (MIC's) of a representative number of the compounds prepared in Examples 2-8 follows. The test procedure is as given supra.

The subject of test [10] is S. lutea. In words: MIC, test procedure as given supra. To be noted: Micrococcus luteus, UC130, 20 h; S. lutea UC 130. It counts as cell-based. As for the experimental part: as §1, §2
Test [11] concerns S. lutea. In words: Qual. Assay vs. S. lutea. In kind it is cell-based. Particulars: qualitative.
Test [12] has as its system D. pneumoniae III. In words: Mouse Protection Test. It counts as in vivo. To be noted: for ED50: Streptococcus pneumoniae, 168 h, read-out: Median Protective Dose (CD50); for ED50 / Median Protective Dose (CD50): strain MPI III, two experiments listed; for Median Protective Dose (CD50): 10080 min, listed as U-60970E . Hcl. From the text:
(§3) Immediately before use, the suspensions were thawed quickly and properly diluted. Infection was via the intrapertioneal route.
(§4) Treatment of the infected groups was begun immediately and continued once per day for 4 days (first 24 hr period=1). Groups of untreated mice served as virulence controls for the culture.
(§5) Seven days after the treatment regimen was begun the surviving animals were sacrificed and the median protective dose of the antibiotic calculated on the basis of mortality rates in the treatment groups. The median protective dose and its 95% confidence interval were calculated according to the method of Spearmen & Karber as programmed on a 360 digital computer.
(§6) U-60,970E was also tested in vivo in standard laboratory mice which were experimentally infected with bacteria. The test was conducted in comparison with U-57,930E.

For test [13], the system named is D. pneumoniae I. In words: Mouse Protection Test. It counts as in vivo. To be noted: for ED50: Streptococcus pneumoniae, 168 h, strain Felton I, read-out: Median Protective Dose (CD50).
Source text: as §3, §4, §5, §6

Test [14] relates to Streptococcus pyogenes. In words: MIC vs. aerobic bacteria, microplate broth-dilution (BHI). It counts as cell-based. Particulars: UC152, UC 152, read-out: Minimal Inhibitory Concentration (MIC). As for the experimental part:
as §1

In test [15] the test system is S. hemolyticus. In words: Mouse Protection Test. In kind it is in vivo. Particulars: for ED50: 168 h, read-out: Median Protective Dose (CD50).
Source text: as §3, §4, §5

Test [16] concerns S. aureus. In words: Mouse Protection Test. It counts as in vivo. Particulars: for ED50: Staphylococcus aureus, read-out: Median Protective Dose (CD50).
Source text: as §3, §4, §5

Test [17] relates to bacteria. In words: antibacterial activity (general statement).
The mark [18] stands for this setting: UC126, UC 126, read-out: Minimal Inhibitory Concentration (MIC).
The mark [19] stands for this setting: UC58, UC 58, read-out: Minimal Inhibitory Concentration (MIC).
Setting [20] is: UC694, UC 694, read-out: Minimal Inhibitory Concentration (MIC).
The mark [21] stands for this setting: UC45, UC 45, read-out: Minimal Inhibitory Concentration (MIC).
Where [22] appears, read: UC95, UC 95, read-out: Minimal Inhibitory Concentration (MIC).
The mark [23] stands for this setting: UC41, Diplococcus pneumoniae I, UC 41, read-out: Minimal Inhibitory Concentration (MIC).
Setting [24] is: UC76, S. aureus UC 76, read-out: Minimal Inhibitory Concentration (MIC).
The mark [25] stands for this setting: UC570, S. aureus UC 570, read-out: Minimal Inhibitory Concentration (MIC).
Where [26] appears, read: UC746, S. aureus UC 746, read-out: Minimal Inhibitory Concentration (MIC).

With `CCc1ccnc(C(=O)N[C@@H]([C@H]2O[C@H](SC)[C@H](O)[C@@H](O)[C@H]2O)[C@H](C)O)c1` [U-45,659], the MIC is greater than 1000 µg/mL in test [1] (UC126, 20 h, S. schottmuelleri UC 126); 1000 µg/mL (≈ 2590 µM) in test [2] (UC58, 20 h, K. pneumoniae UC 58, read-out: MIC); greater than 1000 µg/mL in test [3] (UC694, 20 h, St. faecalis UC 694, read-out: MIC); greater than 1000 µg/mL in test [4] (UC45, 20 h, E. coli UC 45, read-out: MIC); 1000 µg/mL (≈ 2590 µM) in [5] (UC95, 20 h, Ps. aeruginosa UC 95, read-out: MIC); 500 µg/mL (≈ 1290 µM) in test [6] (UC41, 20 h, D. pneumoniae UC 41, read-out: MIC). Moreover, the MIC was greater than 1000 µg/mL in test [7]; greater than 1000 µg/mL in test [8] (UC76, 20 h, S. aureus UC 76, read-out: MIC); greater than 1000 µg/mL in [8] (UC570, 20 h, S. aureus UC 570, read-out: MIC); 1000 µg/mL (≈ 2590 µM) in test [8] (UC746, 20 h, S. aureus UC 746, read-out: MIC); 500 µg/mL (≈ 1290 µM) in [9]; 1000 µg/mL (≈ 2590 µM) in test [10].
For `CS[C@H]1O[C@H]([C@H](NC(=O)c2cccnc2)[C@H](C)Cl)[C@H](O)[C@H](O)[C@H]1O` [U-46,138], the “Qual. Assay vs. S. lutea” value in test [11] is given as “Inactive”.
For the molecule `CCCC[C@@H]1CCN[C@H](C(=O)N[C@@H]([C@H]2O[C@H](SC)[C@H](O)[C@@H](O)[C@H]2O)[C@H](C)Cl)C1` [U-60,970E, 4-Cis-n-Butyl-L-Pipecolic Acid Amide of 7-Cl-MTL], the ED50 turned out to be 3.13 mg/kg in test [12] (po, oral); 0.44 mg/kg in test [12] (sc, subcutaneous); 4.42 mg/kg in test [13] (oral); 0.67 mg/kg in test [13] (sc, subcutaneous); 2.18 mg/kg in [15] (strain C203, oral); 0.35 mg/kg in test [15] (sc, strain C203, subcutaneous). Further, the ED50 was found to be 8.12 mg/kg in test [16] (UC76, 168 h, strain UC 76, oral) and 1.32 mg/kg in test [16] (UC76, sc, 168 h, strain UC 76, subcutaneous). Further, the “in vivo activity compared with U-57,930E” value is “significantly more active” in test [12] (infected mice), “significantly more active” in test [13] (infected mice), “essentially the same activity” in test [15] (infected mice) and “essentially the same activity” in test [16] (infected mice). Moreover, the “Median Protective Dose (CD50)” value was 4.12 (2.93-5.81) mg/kg in test [12] (oral) and 0.29 (0.21-0.41) mg/kg in test [12] (subcutaneous). Also, the MIC is 31.2 µg/mL (≈ 71.1 µM) in [1] (setting [18]); 7.8 µg/mL (≈ 17.8 µM) in [2] (setting [19]); 0.25 µg/mL (≈ 0.569 µM) in [3] (setting [20]); 0.008 µg/mL (≈ 0.0182 µM) in test [14]; 31.2 µg/mL (≈ 71.1 µM) in test [4] (setting [21]); greater than 125 µg/mL in test [5] (setting [22]). Further, the MIC worked out at 0.016 µg/mL (≈ 0.0364 µM) in [6] (setting [23]), 0.125 µg/mL (≈ 0.285 µM) in test [8] (setting [24]), 0.25 µg/mL (≈ 0.569 µM) in [8] (setting [25]) and 0.062 µg/mL (≈ 0.141 µM) in [8] (setting [26]).
In the case of `CC[C@H]1CCN[C@@H](C(=O)N[C@@H]([C@H]2O[C@H](SC)[C@H](O)[C@@H](O)[C@H]2O)[C@H](C)Cl)C1` [V A], the MIC in test [1] (setting [18]) is greater than 1000 µg/mL; in [2] (setting [19]), greater than 1000 µg/mL; in test [3] (setting [20]), greater than 1000 µg/mL; in [14], 62.5 µg/mL (≈ 152 µM); in test [4] (setting [21]) it was greater than 1000 µg/mL; in test [5] (setting [22]), greater than 1000 µg/mL. The MIC in test [6] (setting [23]) was found to be 62.5 µg/mL (≈ 152 µM); in [8] (setting [24]), 250 µg/mL (≈ 608 µM); in [8] (setting [25]), 1000 µg/mL (≈ 2430 µM); in [8] (setting [26]), 125 µg/mL (≈ 304 µM). Also, the “antibacterial potency compared with related form” value in test [17] is reported as “not as potent an antibacterial agent as the L-cis compound”.
